Assay results from patent US4057545A, “Imidazole derivatives” (Nordmark-Werke GmbH Hamburg, priority 1975, dated 1977).

Tests used:
LD50 (mice) = details: mouse, in vivo
[1] = mice; literature value; cited from earlier work
Candida albicans [2] = assay: oral effectiveness in Candida-infected mice (survival); type: in vivo; details: 100 mg/kg twice daily for 7 days
Description: Accordingly, the compounds according to the invention are particularly suitable for the oral treatment of generalized infections by fungi and yeasts in human and veterinary medicine. Since the hitherto available medicaments are not yet satisfactory (Lit.: Infection 2, (1974) 95-107), they represent a valuable addition to pharmacology. In addition, they may be used equally effectively for the local treatment of surface infections and for the treatment of infections of the mucosa excessible to local treatment. Typical diseases of thiskind, for the treatment of which the compounds of the present invention are particular useful, are for instance generalized candidoses, candidoses of the lungs, of the skin or of the genitals or generalized trichophytoses (tineas) or trichophytoses of the skin, of the nails or of the hair.
In order to determine the oral effectiveness of the compounds, groups of 10 mice each weighing approximately 20 g were each treated i.m for 2 days with 50 mg/kg of hydrocortisone to ensure effective development of the infection. The mice were then each infected i.v. with 500,000 Candida albicans germs and thereafter were treated twice daily for 7 days with 100 mg/kg of the substance to be tested. In addition to an infected, but untreated control group, one group was treated with the reference substance Miconazole for comparison.

[3] = tested on: Trichophyton mentagrophytes; assay: series dilution test in vitro, Trichoph.; type: cell-based; set-up: key: .phi.: complete inhibition; (+): strong inhibition; +: moderate inhibition; ++: slight inhibition; +++: no inhibition; details: for inhibition of Trichoph., 1st value: dilution 1: 10,000; for inhibition of Trichoph., 2nd value: dilution 1: 100,000
Procedure: (§1) The new compounds and their salts are valuable agents for controlling fungi and yeasts and, in addition, are also active against several types of bacteria. To test the antimicrobial activity of the new compounds in vitro, they were tested in a series dilution test with dilutions of from 1:10,000 to 1:100,000 for their effectiveness against the germs Staphylococcus aureus, Trichophyton mentagrophytes and Candida albicans.

Candida albicans [4] = assay: series dilution test in vitro, Cand. alb.; type: cell-based; set-up: key: .phi.: complete inhibition; (+): strong inhibition; +: moderate inhibition; ++: slight inhibition; +++: no inhibition; details: for inhibition of Cand. alb., 1st value: dilution 1: 10,000; for inhibition of Cand. alb., 2nd value: dilution 1: 100,000
Procedure: as §1

Staphylococcus aureus = assay: series dilution test in vitro, Staph. aur.; type: cell-based; set-up: key: .phi.: complete inhibition; (+): strong inhibition; +: moderate inhibition; ++: slight inhibition; +++: no inhibition; details: for inhibition of Staph. aur., 1st value: dilution 1: 10,000; for inhibition of Staph. aur., 2nd value: dilution 1: 100,000
Procedure: as §1

SMILES	LD50 (LD50 (mice)) [mg/kg]	LD50 (Lit.) [1] [mg/kg]	animals still alive on the last day of the treatment (Candida albicans [2]) [%]	inhibition of Trichoph., 1st value [3]	inhibition of Trichoph., 2nd value [3]	inhibition of Cand. alb., 1st value (Candida albicans [4])	inhibition of Cand. alb., 2nd value (Candida albicans [4])	inhibition of Staph. aur., 1st value (Staphylococcus aureus)	inhibition of Staph. aur., 2nd value (Staphylococcus aureus)
Clc1ccc(C(=Cc2ccc(Cl)cc2Cl)Cn2ccnc2)cc1 [A, 1-(2,4-dichlorophenyl)-2-(4-chlorophenyl)-3-(imidazolyl-1)-propene-1-nitrate]	~1000	–	–	–	–	–	–	–	–
Clc1ccc(C=C(Cn2ccnc2)c2ccc(Cl)cc2)cc1 [B, 1-(4-chlorophenyl)-2-(4-chlorophenyl)-3-(imidazolyl-1)-propene-1-nitrate]	~1000	–	–	–	–	–	–	–	–
Clc1ccc(C(=Cc2ccccc2)Cn2ccnc2)cc1 [C, 1-phenyl-2-(4-chlorophenyl)-3-(imidazolyl-1)-propene-1-nitrate]	~1000	–	–	–	–	–	–	–	–
Clc1ccc(C=C(Cn2ccnc2)c2ccccc2)c(Cl)c1 [D, 1-(2,4-dichlorophenyl)-2-phenyl-3-(imidazolyl-1)-propene-1-nitrate]	~1000	–	–	–	–	–	–	–	–
Clc1ccc(C=C(Cn2ccnc2)c2ccc(Cl)cc2Cl)c(Cl)c1 [E, 1,2-bis-(2,4-dichlorophenyl)-3-(imidazolyl-1)-propene-1-nitrate]	~2000	–	–	–	–	–	–	–	–
Clc1ccc(C=C(Cn2ccnc2)c2ccc(Cl)cc2Cl)cc1 [F, 1-(4-chlorophenyl)-2-(2,4-dichlorophenyl)-3-(imidazolyl-1)-propene-1-nitrate]	~2000	–	–	–	–	–	–	–	–
Clc1ccc(C(=Cc2ccc(Br)cc2)Cn2ccnc2)c(Cl)c1 [G, 1-(4-bromophenyl)-2-(2,4-dichlorophenyl)-3-(imidazolyl-1)-propene-1-nitrate]	~1000	–	–	–	–	–	–	–	–
Clc1ccc(COC(Cn2ccnc2)c2ccc(Cl)cc2Cl)c(Cl)c1 (stereo not drawn) [Miconazole, 1-[2,4-dichloro-β-(2,4,-dichlorobenzyloxy)-phenethyl]-imidazole nitrate]	–	578	20	–	–	–	–	–	–
Brc1ccc(C=C(Cn2ccnc2)c2ccc(Br)cc2)cc1 [n=0, R1=4-Br, R2=H, R3=4-Br, R4=H]	–	–	–	.phi.	.phi.	.phi.	++	.phi.	.phi.
Cc1ccc(C(=Cc2ccc(Cl)cc2Cl)Cn2ccnc2)cc1 [n=0, R1=4-CH3, R2=H, R3=2-Cl, R4=4-Cl]	–	–	–	.phi.	.phi.	.phi.	(+)	.phi.	.phi.
Clc1ccc(C(=Cc2ccc(Br)cc2)Cn2ccnc2)c(Cl)c1 [n=0, R1=4-Cl, R2=2-Cl, R3=4-Br, R4=H]	–	–	–	.phi.	.phi.	.phi.	++	.phi.	.phi.
Clc1ccc(C(=Cc2ccc(Cl)c(Cl)c2)Cn2ccnc2)c(Cl)c1 [n=0, R1=4-Cl, R2=2-Cl, R3=4-Cl, R4=3-Cl]	–	–	–	.phi.	.phi.	.phi.	++	.phi.	.phi.
Clc1ccc(C(=Cc2ccc(Br)cc2)Cn2ccnc2)cc1 [n=0, R1=4-Cl, R2=H, R3=4-Br, R4=H]	–	–	–	.phi.	.phi.	.phi.	++	.phi.	.phi.
Clc1ccc(C=C(Cn2ccnc2)c2ccc(Cl)cc2)cc1 [n=0, R1=4-Cl, R2=H, R3=4-Cl, R4=H]	–	–	–	.phi.	.phi.	.phi.	(+ )	.phi.	.phi.
COc1ccc(C(=Cc2ccccc2)Cn2ccnc2)cc1 [n=0, R1=H, R2=4-OCH3, R3=H, R4=H]	–	–	–	.phi.	.phi.	.phi.	+++	.phi.	.phi.
Clc1ccc(C=C2c3cc(Cl)ccc3CC2n2ccnc2)c(Cl)c1 (stereo not drawn) [n=1, R1=6-Cl, R2=H, R3=4-Cl, R4=2-Cl]	–	–	–	.phi.	.phi.	.phi.	+++	.phi.	.phi.
Clc1ccc(C=C2c3cc(Cl)ccc3CC2n2ccnc2)cc1 (stereo not drawn) [n=1, R1=6-Cl, R2=H, R3=4-Cl, R4=H]	–	–	–	.phi.	.phi.	.phi.	++	.phi.	.phi.
Clc1ccc(C=C2c3ccccc3CC2n2ccnc2)cc1Cl (stereo not drawn) [n=1, R1=H, R2=H, R3=3-Cl, R4=4-Cl]	–	–	–	.phi.	.phi.	.phi.	++	.phi.	.phi.
Clc1ccc(C=C2c3ccccc3CC2n2ccnc2)cc1 (stereo not drawn) [n=1, R1=H, R2=H, R3=H, R4=4-Cl]	–	–	–	.phi.	.phi.	.phi.	++	.phi.	.phi.
Clc1ccc(C=C2c3ccccc3CCC2n2ccnc2)cc1 (stereo not drawn) [n=2, R1=H, R2=H, R3=H, R4=4-Cl]	–	–	–	.phi.	.phi.	.phi.	++	.phi.	.phi.
C(=C1c2ccccc2CCC1n1ccnc1)c1ccccc1 (stereo not drawn) [n=2, R1=H, R2=H, R3=H, R4=H]	–	–	–	.phi.	.phi.	.phi.	+++	.phi.	.phi.
